Laboratory results published in US20250302817A1, “METHODS FOR TREATING PTEN-MUTANT TUMORS” (Icahn School of Medicine at Mount Sinai, priority 2016, published 2025).
Like-named read-outs stand apart in the source and are kept apart here.

Columns and labels:
[1] = cited from earlier work; for median t½: healthy volunteers and MS patients
[2] = system: MCCL-357 and MCCL-278 cells; test: RPA and gamma-H2AX co-staining by flow cytometry; type: cell-based, mouse
Procedure: FIG. 4A is a graph showing positively-stained cells labeled with a gamma-H2AX antibody; cells were analyzed by flow cytometry (Student's t-test, *p<0.05, n=3). […] The mean fluorescence intensity (MFI) was determined using flow cytometry (Student's t-test, *p<0.01, n=3). FIG. 4C is a series of representative photographs showing MEFs treated with 150 μM A771726 for 24 h and labeled with EdU and gamma-H2AX. Left: representative confocal microscopy images. Right: quantified EdU and gamma-H2AX colocalized foci (Student's t-test, *p<0.05, n=3). […] Left: representative confocal microscopy images. Right: quantification of the number of foci per cell (Student's t-test, p>0.05, n=6). FIG. 4E is a graph showing the percentage of cells treated with 150 μM A771726 for times indicated and labeled with antibodies to RPA and gamma-H2AX positively staining for RPA alone or both RPA and gamma-H2AX; cells were analyzed by flow cytometry (Student's t-test, *p<0.05, n=4). […] FIGS. 4G and 4H are graphs quantifying the number of chromosomal breaks and multiradial formations per haploid genome (Student's t-test, *p-values on figure, cells scored/replicate>100). […]
FIG. 10D is a bar graph showing a quantitative depiction of the percent cell area with EdU-staining from images in FIG. 4D, used to normalize foci to cell size (Student's t-test, p>0.05, not significant, n=6). […] Cells were treated with A771726 for times indicated and co-stained with antibodies to RPA and gamma-H2AX; cells were analyzed by flow cytometry (n=4). […] FIG. 10H is a bar graph showing a quantitative depiction of the percent of abnormal […] in MCCL-278 and MCCL-357 breast cells treated with 50 or 100 μM A771726 or vehicle (Student's t-test, *p<0.01). […] Pulverized chromosomes could not be quantified due to the very high number of fragments.
The FlowCellect™ Cell Cycle Checkpoint H2A.X DNA Damage Kit (Millipore FCCH12542) was used according to the instructions provided in the kit. […] (Propidium iodide was not used in this setting.) Fluorescence was measured on a Guava® flow cytometer.

[3] = cited from earlier work
[4] = system: ATR phosphorylation of CHK1 at serine 345; test: Immunoblot of pChk1; type: cell-based; details: 150 μM A771726; Pten WT versus Pten^−/− cells
[5] = system: PI3K signaling; test: Immunoblot of pAKT in Pten KO and WT cells; type: cell-based; details: 50 μM A771726
Procedure: Note that here as well as in FIG. 2, H-I, a large amount of DMSO was used in each condition to match the amount of orotate needed, narrowing the growth differential normally observed between leflunomide-treated and untreated cells in the PTEN mutant setting. FIG. 8B is a bar graph and immunoblot depicting cells transfected with siRNA against DHODH. The bar graph depicts cell viability measured using annexin V and 7AAD. 0.5 μg/mL actinomycin D was a positive control for cell death. (Students t-test, *p<0.05, n=3). […] FIG. 8C is an immunoblot of DHODH in Pten KO and WT cells. FIG. 8D is an immunoblot of pAKT in Pten KO and WT cells with or without treatment with 50 μM A771726. FIG. 8E and FIG. 8F are bar graphs depicting the GI50s of cells treated with dose titrations of 5-fluorouracil or mercaptopurine, respectively (Student's t-test, p>0.05, n=3). FIG. 8G depicts the confluence of prostate cells grown in media containing full glutamine (4 mM) or no added glutamine. Data shown as means±SD.
Samples were lysed in 2× Laemelli sample buffer with mercaptoethanol and were boiled before separation by SDS-PAGE on Tris-Glycine gels (Invitrogen EC60352). Wet-transfer to PVDF (Fisher ipvh00010) was followed by blocking for 1 hour in 10% nonfat milk (Fisher M-0841) in TBST. […]

[6] = molecular target: T1, albumin (Homo sapiens, UniProt P02768); details: cited from earlier work
T1 construct: host or cells: human subjects (circulating albumin)

[7] = without accelerated elimination procedure

T1 sequence (P02768 25-609): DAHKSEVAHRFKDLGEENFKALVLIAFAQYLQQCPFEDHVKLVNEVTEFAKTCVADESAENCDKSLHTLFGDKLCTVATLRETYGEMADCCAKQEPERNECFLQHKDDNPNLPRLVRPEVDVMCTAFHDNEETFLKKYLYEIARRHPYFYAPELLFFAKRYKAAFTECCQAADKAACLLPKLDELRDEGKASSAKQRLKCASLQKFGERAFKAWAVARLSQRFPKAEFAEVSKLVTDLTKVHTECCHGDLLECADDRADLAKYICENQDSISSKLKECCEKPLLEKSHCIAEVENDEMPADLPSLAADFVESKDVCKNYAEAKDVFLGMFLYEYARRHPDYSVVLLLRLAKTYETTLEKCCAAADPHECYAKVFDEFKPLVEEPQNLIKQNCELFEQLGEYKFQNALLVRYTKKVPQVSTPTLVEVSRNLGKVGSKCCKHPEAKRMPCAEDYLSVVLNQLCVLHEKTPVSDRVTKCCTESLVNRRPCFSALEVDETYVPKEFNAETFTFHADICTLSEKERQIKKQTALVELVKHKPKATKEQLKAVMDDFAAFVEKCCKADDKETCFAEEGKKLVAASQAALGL

C/C(O)=C(\C#N)C(=O)Nc1ccc(C(F)(F)F)cc1 [teriflunomide, (Z)-2-Cyano-3-hydroxy-but-2-enoic acid-(4trifluoromethylphenyl)-amide]
effect of food on teriflunomide pharmacokinetics ([1]; human, in vivo): does not have a clinically relevant effect | time to reach steady-state concentrations ([1]; human, in vivo): approximately 3 months | volume of distribution (Vss) ([1]; human, in vivo): 0.13 L/kg | administered dose excreted via feces ([1]; over 21 days): 37.5% | administered dose excreted via feces and urine ([1]; over 21 days): 60.1% | administered dose excreted via urine ([1]; over 21 days): 22.6% | clearance rate less in females than in males ([1]; population analysis): 23% | increase in clearance, smokers over non-smokers ([1]; population-based pharmacokinetic analysis of phase III data): 38% | median t½ ([1]; repeated doses of 7 mg): approximately 18 days | median t½ ([1]; repeated doses of 14 mg): ~19 days | estimated AUC accumulation ratio ([1]; repeated doses of 7 or 14 mg): approximately 30 | total body clearance ([1]; single IV administration): 30.5 mL/h | time to reach plasma concentrations less than 0.02 mg/L, longest (individual variations in drug clearance) [1, 7]: ≤ 2 years | time to reach plasma concentrations less than 0.02 mg/L, on average [1, 7]: 8 months | RPA and gamma-H2AX double-positive cells ([2]; 150 μM A771726, time course): shift toward both RPA and gamma-H2AX-positive cells in Pten^−/− MCCL-357 but not in Pten WT MCCL-278 cells | RPA signal ([2]; 150 μM A771726, regardless of PTEN genotype): increase in RPA signal | gamma-H2AX in relation to RPA staining ([2]; MCCL-357 cells treated with A771726): appeared almost exclusively in RPA-positive MCCL-357 cells | additional dose eliminated (mostly in feces) ([3]; after accelerated elimination procedure with cholestyramine): 23.1% | decrease in teriflunomide plasma concentration ([3]; end of 11 days of cholestyramine or activated charcoal): more than 98% | ATR phosphorylation of CHK1 at serine 345 [4]: triggered ATR phosphorylation of CHK1 at serine 345 in Pten WT, but to a much lesser extent in Pten^−/− cells | effect on PI3K signaling (pAKT immunoblot) [5]: did not affect PI3K signaling | bound to albumin ([6]; healthy subjects): > 99.3% | free fraction of teriflunomide ([6]; patients with chronic renal failure): approximately doubled | free fraction of teriflunomide ([6]; patients with rheumatoid arthritis): slightly higher | protein binding linearity ([6]; therapeutic concentrations): linear
